Patent US9487510B2, “Substituted heterocyclic acetamides as kappa opioid receptor (KOR) agonists” (Dr. Reddy's Laboratories Ltd., priority 2012, dated 2016)

What follows are compounds tested against human KOR receptor (Homo sapiens, UniProt P41145) (assay: IP-One HTRF assay, potency of KOR agonists, dose-response in transiently transfected COS-7 cells).
Sequence of human KOR receptor (P41145 whole entry): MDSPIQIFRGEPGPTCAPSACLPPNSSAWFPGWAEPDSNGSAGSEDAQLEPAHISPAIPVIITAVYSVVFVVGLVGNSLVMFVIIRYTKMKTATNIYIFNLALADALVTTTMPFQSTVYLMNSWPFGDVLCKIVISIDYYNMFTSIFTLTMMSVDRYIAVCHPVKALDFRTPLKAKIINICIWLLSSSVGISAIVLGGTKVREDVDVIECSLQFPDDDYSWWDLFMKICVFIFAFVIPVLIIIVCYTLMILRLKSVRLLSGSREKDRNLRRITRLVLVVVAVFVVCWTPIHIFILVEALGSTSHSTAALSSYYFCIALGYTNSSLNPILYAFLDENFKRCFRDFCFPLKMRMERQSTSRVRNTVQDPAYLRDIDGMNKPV
Type: cell-based
`CN(C(=O)Cc1ccc2c(c1)NS(=O)(=O)C2)[C@H](CN1CC[C@H](O)C1)c1cccc(C(F)(F)F)c1` [Example 9, 2-(2,2-dioxido-1,3-dihydrobenzo[c]isothiazol-6-yl)-N-((S)-2-((S)-3-hydroxypyrrolidin-1-yl)-1-(3-(trifluoromethyl)phenyl)ethyl)-N-methylacetamide] was tested, and the EC50 was 101 to 1000 nM.
With `O=C1CS(=O)(=O)c2ccc(CC(=O)N(CC(F)(F)F)[C@H](CN3CC[C@H](O)C3)c3cccc(OC(F)(F)F)c3)cc2N1` [Example 16, 2-(1,1-dioxido-3-oxo-3,4-dihydro-2H-benzo[b][1,4]thiazin-6-yl)-N-((S)-2-((S)-3-hydroxypyrrolidin-1-yl)-1-(3-(trifluoromethoxy)phenyl)ethyl)-N-(2,2,2-trifluoroethyl)acetamide 2,2,2-trifluoroacetate] the EC50 was ≤ 50 nM.
`CN(C(=O)Cc1ccc2c(c1)NC(=O)CO2)[C@H](CN1CC[C@H](O)C1)c1cccc(OCC(=O)O)c1` [Example 167, 2-(3-((S)-2-((S)-3-hydroxypyrrolidin-1-yl)-1-(N-methyl-2-(3-oxo-3,4-dihydro-2H-benzo[b][1,4]oxazin-6-yl)acetamido)ethyl)phenoxy)acetic acid] was tested, and the EC50 was ≤ 50 nM.
`CN(C(=O)Cc1ccc2sc(=O)[nH]c2c1)[C@H](CN1CC[C@H](O)C1)c1cccc(C(=O)NCC(F)(F)F)c1` [Example 228, 3-((S)-2-((S)-3-hydroxypyrrolidin-1-yl)-1-(N-methyl-2-(2-oxo-2,3-dihydrobenzo[d]thiazol-5-yl)acetamido)ethyl)-N-(2,2,2-trifluoroethyl)benzamide] was tested, and the EC50 was ≤ 50 nM.
With `CN(C(=O)Cc1ccc2c(c1)NC(=O)C2)[C@H](CN1CC[C@H](O)C1)c1cccc(C(=O)NCC(F)(F)F)c1` [Example 38, 3-((S)-2-((S)-3-hydroxypyrrolidin-1-yl)-1-(N-methyl-2-(2-oxoindolin-6-yl)acetamido)ethyl)-N-(2,2,2-trifluoroethyl)benzamide] the EC50 was ≤ 50 nM.
In the case of `CCC#Cc1cccc([C@@H](CN2CC[C@H](O)C2)N(C)C(=O)Cc2ccc3c(c2)NC(=O)C3)c1` [Example 204, N-((S)-1-(3-(but-1-yn-1-yl)phenyl)-2-((S)-3-hydroxypyrrolidin-1-yl)ethyl)-N-methyl-2-(2-oxoindolin-6-yl)acetamide], the EC50 is reported as ≤ 50 nM.
`CN(C(=O)Cc1ccc2c(c1)NC(=O)C2)[C@H](CN1CC[C@H](O)C1)c1cc(F)cc(C#N)c1` [Example 197, N-((S)-1-(3-cyano-5-fluorophenyl)-2-((S)-3-hydroxypyrrolidin-1-yl)ethyl)-N-methyl-2-(2-oxoindolin-6-yl)acetamide] showed an EC50 of 51 to 100 nM.
With `CN(C(=O)Cc1ccc2c(c1)NC(=O)CS2)[C@H](CN1CC[C@H](O)C1)c1cccc(OC(F)(F)F)c1` [Example 134, N-((S)-2-((S)-3-hydroxypyrrolidin-1-yl)-1-(3-(trifluoromethoxy)phenyl)ethyl)-N-methyl-2-(3-oxo-3,4-dihydro-2H-benzo[b][1,4]thiazin-6-yl)acetamide] the EC50 was ≤ 50 nM.
With `CN(C(=O)Cc1ccc2c(c1)NC(=O)C2)[C@H](CN1CC[C@H](O)C1)c1cccc(-c2cncn2C)c1` [Example 222, N-((S)-2-((S)-3-hydroxypyrrolidin-1-yl)-1-(3-(1-methyl-1H-imidazol-5-yl)phenyl)ethyl)-N-methyl-2-(2-oxoindolin-6-yl)acetamide] the EC50 was ≤ 50 nM.
With `CN(C(=O)Cc1ccc2c(c1)NS(=O)(=O)C2)[C@H](CN1CC[C@H](O)C1)c1cccc(-c2noc(C(F)(F)F)n2)c1` [Example 187, 2-(2,2-dioxido-1,3-dihydrobenzo [c]isothiazol-6-yl)-N-((S)-2-((S)-3-hydroxypyrrolidin-1-yl)-1-(3-(5-(trifluoromethyl)-1,2,4-oxadiazol-3-yl)phenyl)ethyl)-N-methylacetamide 2,2,2-trifluoroacetate] the EC50 was ≤ 50 nM.
For `CN(C(=O)Cc1ccc2c(c1)NC(=O)CS2)[C@H](CN1CC[C@H](O)C1)c1cccc(C(=O)O)c1` [Example 154, 3-((S)-2-((S)-3-hydroxypyrrolidin-1-yl)-1-(N-methyl-2-(3-oxo-3,4-dihydro-2H-benzo[b][1,4]thiazin-6-yl)acetamido)ethyl)benzoic acid], the EC50 was ≤ 50 nM.
`Cc1nc(-c2cccc([C@@H](CN3CC[C@H](O)C3)N(C)C(=O)Cc3ccc4c(c3)NC(=O)C4)c2)no1` [Example 35, N-((S)-2-((S)-3-hydroxypyrrolidin-1-yl)-1-(3-(5-methyl-1,2,4-oxadiazol-3-yl)phenyl)ethyl)-N-methyl-2-(2-oxoindolin-6-yl)acetamide] was tested, and the EC50 was ≤ 50 nM.
Work on `O=C(Cc1ccc2sc(=O)[nH]c2c1)N[C@H](CN1CCCC1)c1ccccc1` [Example 4, (S)-2-(2-oxo-2,3-dihydrobenzo[d]thiazol-5-yl)-N-(1-phenyl-2-(pyrrolidin-1-yl)ethyl)acetamide] yielded an EC50 of 51 to 100 nM.
For `CCN(CC)C(=O)c1cccc([C@@H](CN2CC[C@H](O)C2)N(C)C(=O)Cc2ccc3c(c2)NS(=O)(=O)C3)c1` [Example 208, 3-((S)-1-(2-(2,2-dioxido-1,3-dihydrobenzo[c]isothiazol-6-yl)-N-methylacetamido)-2-((S)-3-hydroxypyrrolidin-1-yl)ethyl)-N,N-diethylbenzamide], the EC50 was ≤ 50 nM.
With `Cc1ncc(-c2cccc([C@@H](CN3CC[C@H](O)C3)N(C)C(=O)Cc3ccc4c(c3)NC(=O)C4)c2)s1` [Example 219, N-((S)-2-((S)-3-hydroxypyrrolidin-1-yl)-1-(3-(2-methylthiazol-5-yl)phenyl)ethyl)-N-methyl-2-(2-oxoindolin-6-yl)acetamide] the EC50 was ≤ 50 nM.
`CN(C(=O)Cc1ccc2c(c1)NC(=O)C2)[C@H](CN1CC[C@H](O)C1)c1cccc(C(=O)NS(C)(=O)=O)c1` [Example 177, 3-((S)-2-((S)-3-hydroxypyrrolidin-1-yl)-1-(N-methyl-2-(2-oxoindolin-6-yl)acetamido)ethyl)-N-(methylsulfonyl)benzamide] was tested, and the EC50 was ≤ 50 nM.
For `CN(C(=O)Cc1ccc2c(c1)NC(=O)C2)[C@H](CN1CC[C@H](F)C1)c1cccc(OCC(N)=O)c1` [Example 30, N-((S)-1-(3-(2-amino-2-oxoethoxy)phenyl)-2-((S)-3-fluoropyrrolidin-1-yl)ethyl)-N-methyl-2-(2-oxoindolin-6-yl)acetamide], the EC50 was ≥ 1000 nM.
`CN(C(=O)Cc1ccc2c(c1)NC(=O)C2)[C@H](CN1CC[C@H](O)C1)c1cccc(OCC(N)=O)c1` [Example 26, N-((S)-1-(3-(2-amino-2-oxoethoxy)phenyl)-2-((S)-3-hydroxypyrrolidin-1-yl)ethyl)-N-methyl-2-(2-oxoindolin-6-yl)acetamide] was tested, and the EC50 was ≤ 50 nM.
In the case of `CN(C(=O)Cc1ccc2c(c1)NC(=O)C2)[C@H](CN1CC[C@H](O)C1)c1cccc(-c2nnco2)c1` [Example 223, N-((S)-1-(3-(1,3,4-oxadiazol-2-yl)phenyl)-2-((S)-3-hydroxypyrrolidin-1-yl)ethyl)-N-methyl-2-(2-oxoindolin-6-yl)acetamide], the EC50 is reported as ≤ 50 nM.
`O=C1CSc2ccc(CC(=O)N[C@H](CN3CCCC3)c3ccccc3)cc2N1` [Example 127, (S)-2-(3-oxo-3,4-dihydro-2H-benzo [b][1,4]thiazin-6-yl)-N-(1-phenyl-2-(pyrrolidin-1-yl)ethyl)acetamide] was tested, and the EC50 was ≤ 50 nM.
In the case of `CN(C(=O)Cc1ccc2sc(=O)[nH]c2c1)[C@H](CN1CC[C@H](O)C1)c1cccc(-c2nccs2)c1` [Example 192, N-((S)-2-((S)-3-hydroxypyrrolidin-1-yl)-1-(3-(thiazol-2-yl)phenyl)ethyl)-N-methyl-2-(2-oxo-2,3-dihydrobenzo[d]thiazol-5-yl)acetamide], the EC50 is reported as 101 to 1000 nM.
For `CN(C(=O)Cc1ccc2c(c1)NC(=O)C(C)(C)S2(=O)=O)[C@H](CN1CC[C@H](O)C1)c1cccc(OC(F)(F)F)c1` [Example 148, 2-(2,2-dimethyl-1,1-dioxido-3-oxo-3,4-dihydro-2H-benzo[b][1,4]thiazin-6-yl)-N-((S)-2-((S)-3-hydroxypyrrolidin-1-yl)-1-(3-(trifluoromethoxy)phenyl)ethyl)-N-methylacetamide], the EC50 was ≤ 50 nM.
For `CN(C(=O)Cc1ccc2sc(=O)[nH]c2c1)[C@H](CN1CC[C@H](O)C1)c1cccc(-c2ncon2)c1` [Example 189, N-((S)-1-(3-(1,2,4-oxadiazol-3-yl)phenyl)-2-((S)-3-hydroxypyrrolidin-1-yl)ethyl)-N-methyl-2-(2-oxo-2,3-dihydrobenzo[d]thiazol-5-yl)acetamide 2,2,2-trifluoroacetate], the EC50 was ≤ 50 nM.
For `CN(C(=O)Cc1ccc2c(c1)NC(=O)CS2(=O)=O)[C@H](CN1CC[C@H](O)C1)c1cccc(-c2ncon2)c1` [Example 212, N-((S)-1-(3-(1,2,4-oxadiazol-3-yl)phenyl)-2-((S)-3-hydroxypyrrolidin-1-yl)ethyl)-2-(1,1-dioxido-3-oxo-3,4-dihydro-2H-benzo[b][1,4]thiazin-6-yl)-N-methylacetamide2,2,2-trifluoroacetate], the EC50 was ≤ 50 nM.
In the case of `CN(C(=O)Cc1ccc2c(c1)NC(=O)C2)[C@H](CN1CC[C@H](O)C1)c1cccc(-c2cn(C)cn2)c1` [Example 225, N-((S)-2-((S)-3-hydroxypyrrolidin-1-yl)-1-(3-(1-methyl-1H-imidazol-4-yl)phenyl)ethyl)-N-methyl-2-(2-oxoindolin-6-yl)acetamide], the EC50 is reported as ≤ 50 nM.
`CO[C@H]1CCN(C[C@H](c2cccc(OC(F)(F)F)c2)N(C)C(=O)Cc2ccc3c(c2)NC(=O)CS3(=O)=O)C1` [Example 15, 2-(1,1-dioxido-3-oxo-3,4-dihydro-2H-benzo[b][1,4]thiazin-6-yl)-N-((S)-2-((S)-3-methoxypyrrolidin-1-yl)-1-(3-(trifluoromethoxy)phenyl)ethyl)-N-methylacetamide] was tested, and the EC50 was ≤ 50 nM.
For `CN(C(=O)Cc1ccc2c(c1)NC(=O)CS2(=O)=O)[C@H](CN1CC[C@H](O)C1)c1cccc(OC(F)(F)F)c1` [Example 5, 2-(1,1-dioxido-3-oxo-3,4-dihydro-2H-benzo [b][1,4]thiazin-6-yl)-N-((S)-2-((S)-3-hydroxypyrrolidin-1-yl)-1-(3-(trifluoromethoxy)phenyl)ethyl)-N-methylacetamide], the EC50 was ≤ 50 nM.
`CN(C(=O)Cc1ccc2oc(=O)[nH]c2c1)C(CN1CC[C@H](O)C1)c1cccc(OCC(=O)O)c1` (stereo partly drawn) [Example 94, (S)-2-(3-(2-(3-hydroxypyrrolidin-1-yl)-1-(N-methyl-2-(2-oxo-2,3-dihydrobenzo[d]oxazol-5-yl)acetamido)ethyl)phenoxy)acetic acid triflouro acetate] was tested, and the EC50 was ≤ 50 nM.
